In general, melting point refers to the temperature of the solid-liquid transition.

The target of one data set is T1, CXCR2 receptor (Homo sapiens, UniProt P25025).
T1 construct: β-galactosidase enzyme-complementation fragment (PathHunter system); host or cells: HEK293
T1 sequence (P25025 1-360): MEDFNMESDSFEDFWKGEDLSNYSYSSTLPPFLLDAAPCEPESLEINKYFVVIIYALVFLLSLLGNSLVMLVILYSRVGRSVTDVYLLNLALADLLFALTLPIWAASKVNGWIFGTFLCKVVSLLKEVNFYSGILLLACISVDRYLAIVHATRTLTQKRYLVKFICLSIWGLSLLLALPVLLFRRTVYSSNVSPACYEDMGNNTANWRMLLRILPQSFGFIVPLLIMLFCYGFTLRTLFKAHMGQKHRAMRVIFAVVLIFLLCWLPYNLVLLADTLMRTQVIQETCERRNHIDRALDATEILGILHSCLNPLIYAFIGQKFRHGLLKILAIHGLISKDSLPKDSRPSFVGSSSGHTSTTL
Briefly: β-arrestin 2 recruitment test after CXCL8 activation, PathHunter HEK293-CXCR2 cells. Type of data set: cell-based. The settings on record: stimulation with CXCL8 (10 nM), read-out: CXCR2 (nM), IC50 = half inhibition concentration. The protocol:
(§1) The in vitro affinity of the compounds of the present invention for the CXCR1 and CXCR2 receptors was determined on a functional test of the β-arrestin recruitment after receptor activation type.
(§2) In order to evaluate the direct interaction of the CXCR2 or CXCR1 receptor with β-arrestin 2, a β-arrestin 2 recruitment test for CXCR2 or CXCR1 based on β-galactosidase enzyme complementation (Olson K R, Eglen R M. Beta galactosidase complementation: a cell-based luminescent assay platform for drug discovery. Assay Drug Dev Technol. 2007 February; 5(1); 137-44), as established by DiscoveRx Corporation was used. The stimulation of these two cell lines with CXCL8 (10 nM) induces β-arrestin 2 recruitment, as indicated by a significant increase in the induction factor. […]
(§3) “PathHunter HEK293-CXCR2” or “U2OS hCXCR1 β-arrestin” cells (DiscoveRx Corporation) were seeded overnight at 10 000 cells/well (384-well format) in 20 μl of Opti MEM I medium. […] After incubation for 60 min at ambient temperature, the […] during the β-arrestin-CXCR2 interaction was measured for 0.3 s in an Envision 2102 Multilabel Reader (PerkinElmer Life and Analytical Sciences). The data were analyzed by means of a non-linear curve procedure using the XLFit4 exploitation software (IDBS) and the IC50 values were determined.

A further data set concerns the target T2, CXCR1 receptor (Homo sapiens, UniProt P25024).
T2 construct: β-galactosidase enzyme-complementation fragment (PathHunter system); host or cells: U2OS
T2 sequence (P25024 1-350): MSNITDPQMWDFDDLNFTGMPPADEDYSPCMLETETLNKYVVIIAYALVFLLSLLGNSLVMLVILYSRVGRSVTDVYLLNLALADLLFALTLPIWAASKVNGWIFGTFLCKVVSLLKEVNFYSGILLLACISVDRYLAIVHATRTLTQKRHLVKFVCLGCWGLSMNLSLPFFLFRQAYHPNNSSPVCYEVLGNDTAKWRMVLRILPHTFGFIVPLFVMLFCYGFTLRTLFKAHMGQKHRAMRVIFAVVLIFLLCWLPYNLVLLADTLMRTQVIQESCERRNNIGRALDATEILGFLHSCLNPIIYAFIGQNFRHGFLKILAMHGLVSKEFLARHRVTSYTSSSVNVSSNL
Description: β-arrestin 2 recruitment test after CXCL8 activation, U2OS hCXCR1 β-arrestin cells. The settings on record: stimulation with CXCL8 (10 nM), read-out: CXCR1 (nM), IC50 = half inhibition concentration. It is filed as cell-based. The protocol:
as §1, §2, §3
In general terms: Recruitment of arrestin is a read-out of receptor activation apart from second messengers.

In the case of `Cc1ccc(C(Nc2c(Nc3cccc(C(=O)N(C)C)c3O)c(=O)c2=O)C2CCOCC2)o1` (stereo not drawn) [Example 1, 2-hydroxy-N,N-dimethyl-3-(2-{[(5-methylfuran-2-yl)-(tetrahydropyran-4-yl)methyl]amino}-3,4-dioxocyclobut-1-enylamino)benzamide], the melting point was in the range of 137 to 140 °C. Further, at CXCR2 receptor, the IC50 stood at 212 nM. Further, the IC50 on CXCR1 receptor was found to be 5440 nM.

Take `Cc1ccc(C(Nc2c(Nc3cccc(C(=O)N(C)C)c3O)c(=O)c2=O)C2CCSCC2)o1` (stereo not drawn) [Example 2, 2-hydroxy-N,N-dimethyl-3-(2-{[(5-methylfuran-2-yl)-(tetrahydrothiopyran-4-yl)methyl]amino}-3,4-dioxocyclobut-1-enylamino)benzamide]: the melting point is 173 to 175 °C. For the same compound, the IC50 on CXCR2 receptor came to 111 nM. Moreover, the IC50 at CXCR1 receptor came out at 3390 nM.
